From PMC4264174, “The Discovery of Aurora Kinase Inhibitor by Multi-Docking-Based Virtual Screening” (International Journal of Molecular Sciences, 2014)

Assays:
Aurora-A (h) = target: T1, Aurora-A (h) (Homo sapiens, UniProt O14965); test: Kinase Profiler in vitro assay (Merck Millipore), aurora-A; assay type: biochemical; conditions: for inhibition at 100 µM: Aurora-A, at 100 μM concentration, with standard deviation; for IC50: at aurora A (h)
T1 construct: purchased Merck Millipore, Inc. (Abingdon, UK), Kinase Profiler service
T1 sequence (O14965 1-403): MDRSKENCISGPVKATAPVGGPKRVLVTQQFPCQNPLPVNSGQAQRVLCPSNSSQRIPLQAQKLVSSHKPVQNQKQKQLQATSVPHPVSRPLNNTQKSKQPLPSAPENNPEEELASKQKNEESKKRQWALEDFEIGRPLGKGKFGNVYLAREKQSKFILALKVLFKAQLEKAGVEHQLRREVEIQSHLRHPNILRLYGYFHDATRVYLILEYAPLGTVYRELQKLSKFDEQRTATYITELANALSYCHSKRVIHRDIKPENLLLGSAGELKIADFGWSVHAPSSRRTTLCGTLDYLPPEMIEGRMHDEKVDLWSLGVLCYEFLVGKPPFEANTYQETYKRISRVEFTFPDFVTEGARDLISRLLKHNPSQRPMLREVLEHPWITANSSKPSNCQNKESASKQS
Procedure: The fragments obtained from the above-mentioned docking study were purchased from commercial websites and evaluated using the Kinase Profiler in vitro assay technique developed by Merck Millipore, Inc., (Abingdon, UK). The aurora-A kinase was maintained with 8 mM […] at pH 7.0, 0.2 mM EDTA, 200 μM LRRASLG (Kemptide, American peptide Company, Sunnyvale, CA, USA), 10 mM MgAcetate, and [γ-33P-ATP]. The kinase reaction began with the addition of the MgATP mixture. The buffer-MgATP mixture was incubated for 40 min at room temperature. After incubation, the reaction was stopped through the addition of a 3% phosphoric acid solution. Then, a 10 μL reaction was spotted onto a P30 filtermat. The spotted P30 filtermat was washed three times for 5 min in 50 mM phosphoric acid and once in methanol prior to the drying and scintillation counting step.

Aurora-C (h) = target: T2, Aurora-C (h) (Homo sapiens, UniProt Q9UQB9); test: Kinase Profiler in vitro assay, aurora-C; assay type: biochemical
T2 construct: purchased Merck Millipore, Inc. (Abingdon, UK), Kinase Profiler service
T2 sequence (Q9UQB9 1-309): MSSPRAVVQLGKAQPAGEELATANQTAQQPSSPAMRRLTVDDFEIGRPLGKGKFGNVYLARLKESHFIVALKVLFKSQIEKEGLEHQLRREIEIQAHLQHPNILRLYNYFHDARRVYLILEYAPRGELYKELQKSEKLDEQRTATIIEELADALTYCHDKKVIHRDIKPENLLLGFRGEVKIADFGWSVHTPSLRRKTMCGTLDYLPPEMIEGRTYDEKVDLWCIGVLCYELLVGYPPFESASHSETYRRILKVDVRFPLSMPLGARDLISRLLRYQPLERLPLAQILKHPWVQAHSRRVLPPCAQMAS

Aurora-B (h) = target: T3, Aurora-B (h) (Homo sapiens, UniProt Q96GD4); test: Kinase Profiler in vitro assay, aurora-B; assay type: biochemical
T3 construct: purchased Merck Millipore, Inc. (Abingdon, UK), Kinase Profiler service
T3 sequence (Q96GD4 whole entry): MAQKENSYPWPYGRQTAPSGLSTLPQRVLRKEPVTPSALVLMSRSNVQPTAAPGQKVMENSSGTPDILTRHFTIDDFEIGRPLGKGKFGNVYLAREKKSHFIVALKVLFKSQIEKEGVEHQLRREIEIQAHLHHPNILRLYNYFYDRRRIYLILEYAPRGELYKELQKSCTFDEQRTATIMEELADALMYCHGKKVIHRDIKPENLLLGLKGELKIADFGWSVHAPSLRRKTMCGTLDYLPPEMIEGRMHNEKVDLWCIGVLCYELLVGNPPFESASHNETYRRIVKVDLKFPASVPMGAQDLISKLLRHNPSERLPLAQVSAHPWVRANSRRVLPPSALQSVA

aurora-A = conditions: cited from earlier work

| inhibition at 100 µM (Aurora-A (h)) [%] | SMILES | other results |
| --- | --- | --- |
| > 50 | Cc1cc(C)cc(Nc2ncc3c(n2)C[C@@H](c2cccs2)CC3=O)c1 [Fragment 3] | – |
| 24 ± 4 | COC(=O)c1nc2[nH]c(=O)cc(C)n2n1 [Fragment 8] | – |
| – | O=C1C(Nc2ccc(Cl)cc2)=C(Cl)C(=O)c2[nH]c(C(F)(F)F)nc21 [Compound 16] | inhibition at 10 µM (Aurora-C (h)): 8 ± 8%; inhibition at 10 µM (Aurora-B (h)): 84 ± 1%; inhibition at 10 µM (Aurora-A (h)): 52%; IC50 (Aurora-A (h)): 9.17 µM |
| > 50 | Cc1nnsc1C(=O)Nc1onc2c1CSC2 [Fragment 13] | – |
| 31 ± 6 | Cc1nn2c(nc3ccccc32)[nH]c1=O [Fragment 5] | – |
| 93 ± 2 | O=C1C=CC(=O)c2[nH]c(C(F)(F)F)nc21 [Fragment 12] | – |
| 28 ± 1 | COC(=O)CSc1nnc(-c2n[nH]c3c2CCC3)n1N [Fragment 4] | – |
| 8 ± 10 | Cc1nonc1-c1ccnc2nnc(N)n12 [Fragment 9] | – |
| 39 ± 3 | O=C(Nc1onc2c1CCCC2)c1nc(-c2cnccn2)no1 [Fragment 14] | – |
| – | CN[C@@H]1C[C@H]2O[C@@](C)([C@@H]1OC)n1c3ccccc3c3c4c(c5c6ccccc6n2c5c31)C(=O)NC4 [Staurosporine, reference compound] | inhibition at 10 µM (Aurora-A (h)): 100% |
| 13 ± 12 | O=c1cc(-c2ccccc2)[nH]c2nc(SCc3ccccc3)nn12 [Fragment 2] | – |
| 35 ± 3 | COC(=O)/C=C1\S/C(=N\NC(=O)c2snnc2C)NC1=O [Fragment 7] | – |
| – | O=C1C(Nc2cccc(Cl)c2)=C(Cl)C(=O)c2[nH]c(C(F)(F)F)nc21 [Compound 17] | inhibition at 10 µM (Aurora-C (h)): 17 ± 4%; inhibition at 10 µM (Aurora-B (h)): 76 ± 1%; inhibition at 10 µM (Aurora-A (h)): 65%; IC50 (Aurora-A (h)): 7.47 µM |
| 2 ± 15 | C/C=C/C(=O)Nn1cnc2c(cnn2-c2ccccc2)c1=O [Fragment 15] | – |
| 25 ± 2 | COc1cnc(NCc2ncn[nH]2)nc1-c1ccnn1C [Fragment 11] | – |
